Assay results published in ChEMBL document CHEMBL1145392, “Natural feruloyl monoglyceride macrocycles as protecting factors against free-radical damage of lipidic membranes” (Bioorg Med Chem Lett, 2007).
Active and inactive are the calls of the source.

Assays:
Type in all cases: functional
[1] = Superoxide radical scavenging activity assessed as NBT reduction
[2] = tested on: Liver microsomes; assay: Inhibition of lipid peroxidation activity in Wistar rat liver microsomes by TBRAS assay; conditions: Microsome
[3] = Hydrogen peroxide radical scavenging activity

Measured: Activity

COc1cc(/C=C/C(=O)OCC2COC(=O)CCCCCCCCCCCCCCCCCCCCCCCCCCO2)ccc1O (configuration not stated)
active: [1] | [2] | [3]

COc1cc(/C=C\C(=O)OCC2COC(=O)CCCCCCCCCCCCCCCCCCCCCCCCO2)ccc1O (configuration not stated)
active: [1] | [2] | [3]

COc1cc(/C=C/C(=O)OCC2COC(=O)CCCCCCCCCCCCCCCCCCCCCCCCCCCCCO2)ccc1O (configuration not stated)
active: [1] | [2] | [3]

COc1cc(/C=C/C(=O)OCC2COC(=O)CCCCCCCCCCCCCCCCCCCCCCCO2)ccc1O (configuration not stated)
active: [1] | [2] | [3]

COc1cc(/C=C/C(=O)OCC2COC(=O)CCCCCCCCCCCCCCCCCCCCO2)ccc1O (configuration not stated)
active: [1] | [2] | [3]

COc1cc(/C=C/C(=O)OCC2COC(=O)CCCCCCCCCCCCCCCCCCCCCCCCO2)ccc1O (configuration not stated)
active: [1] | [2] | [3]

COc1cc(/C=C/C(=O)OCC2COC(=O)CCCCCCCCCCCCCCCCCCCCCCCCCCCCO2)ccc1O (configuration not stated)
active: [1] | [2] | [3]

COc1cc(/C=C/C(=O)OCC2COC(=O)CCCCCCCCCCCCCCCCCCO2)ccc1O (configuration not stated)
active: [1] | [2] | [3]

COc1cc(/C=C\C(=O)OCC2COC(=O)CCCCCCCCCCCCCCCCCCCCCCCCCCCCCCCCCO2)ccc1O (configuration not stated)
active: [1] | [2] | [3]
